Assay results reported in ChEMBL document CHEMBL4196183, “Discovery of New Allosteric Modulators of the Urotensinergic System through Substitution of the Urotensin II-Related Peptide (URP) Phenylalanine Residue” (J Med Chem, 2018).
Activity calls are given as the source filed them. The rule behind the calls is not given here.

Assays:
Urotensin-2 receptor [1] = molecular target: T1, Urotensin-2 receptor (Homo sapiens, UniProt Q9UKP6); test: Agonist activity at human UT receptor expressed in HEK293 cells co-expressing Gq-polycistronic BRET biosensor assessed as induction of Gq activation measured for 5 mins by luminescence detection based BRET assay; type: functional, cell-based
T1 sequence (Q9UKP6 whole entry): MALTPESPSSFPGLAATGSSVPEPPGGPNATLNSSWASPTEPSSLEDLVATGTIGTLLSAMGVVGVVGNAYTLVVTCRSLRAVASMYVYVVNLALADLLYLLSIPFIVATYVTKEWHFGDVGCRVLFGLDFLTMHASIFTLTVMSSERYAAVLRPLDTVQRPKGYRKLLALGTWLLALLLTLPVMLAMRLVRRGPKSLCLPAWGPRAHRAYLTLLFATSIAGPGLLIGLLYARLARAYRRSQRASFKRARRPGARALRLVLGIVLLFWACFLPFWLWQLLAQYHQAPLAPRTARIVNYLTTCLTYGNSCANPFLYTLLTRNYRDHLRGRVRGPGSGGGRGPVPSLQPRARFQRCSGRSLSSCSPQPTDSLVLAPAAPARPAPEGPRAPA

Urotensin-2 receptor [2] = molecular target: T1, Urotensin-2 receptor; test: Agonist activity at human UT receptor expressed in HEK293 cells co-expressing G12-polycistronic BRET biosensor assessed as induction of G12 activation measured for 5 mins by luminescence detection based BRET assay; type: functional, cell-based
[3] = molecular target: T2, Urotensin-2 receptor (Homo sapiens) (UniProt Q9UKP6); test: Agonist activity at human UT receptor expressed in HEK293 cells co-expressing G12-polycistronic BRET biosensor assessed as induction of G12 activation measured for 5 mins by luminescence detection based BRET assay relative to 10 uM URP; type: functional, cell-based
T2 sequence (whole entry): T1 sequence (Q9UKP6 whole entry)

[4] = molecular target: T3, Urotensin-2 receptor (Rattus norvegicus) (UniProt P49684); test: (§1) Antagonist activity at UT receptor in Sprague-Dawley rat thoracic aortic ring assessed as reduction in urotensin-2-induced contraction by measuring Emax for human urotensin-2-induced contraction at 1 uM pre-incubated for 30 mins before urotensin-2 stimulation relative to KCl-induced contraction (reference value: 101 +/- 4%); type: functional
T3 sequence (whole entry): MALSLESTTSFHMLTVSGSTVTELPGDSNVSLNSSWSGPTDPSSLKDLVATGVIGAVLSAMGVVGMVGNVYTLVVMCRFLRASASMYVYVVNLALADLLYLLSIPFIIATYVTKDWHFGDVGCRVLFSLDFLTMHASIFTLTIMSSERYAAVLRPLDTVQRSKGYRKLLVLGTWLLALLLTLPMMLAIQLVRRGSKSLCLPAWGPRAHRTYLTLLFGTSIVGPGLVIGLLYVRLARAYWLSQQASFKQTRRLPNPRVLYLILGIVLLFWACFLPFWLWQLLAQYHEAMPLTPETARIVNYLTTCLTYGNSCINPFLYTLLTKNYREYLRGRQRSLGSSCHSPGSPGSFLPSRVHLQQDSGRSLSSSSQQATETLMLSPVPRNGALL

[5] = molecular target: T2, Urotensin-2 receptor (Homo sapiens); test: Agonist activity at human UT receptor expressed in HEK293 cells co-expressing Gq-polycistronic BRET biosensor assessed as induction of Gq activation measured for 5 mins by luminescence detection based BRET assay relative to 10 uM URP; type: functional, cell-based
[6] = molecular target: T2, Urotensin-2 receptor (Homo sapiens); test: (§2) Bias factor, ratio of deltalog(Tau/KA) for agonist activity at human UT receptor expressed in HEK293 cells co-expressing G12-polycistronic BRET biosensor assessed as induction of G12 activation by luminescence detection based BRET assay to deltalog(Tau/KA) for agonist activity at human UT receptor expressed in HEK293 cells co-expressing beta-arrestin1-polycistronic BRET biosensor assessed as induction of beta-arrestin1 recruitment by luminescence detection based BRET assay; type: functional, cell-based
[7] = molecular target: T3, Urotensin-2 receptor (Rattus norvegicus); test: Agonist activity at UT receptor in Sprague-Dawley rat thoracic aortic ring assessed as induction of contraction relative to KCl-induced contraction; type: functional
[8] = molecular target: T2, Urotensin-2 receptor (Homo sapiens); test: as §2, with “Gq-polycistronic” for “beta-arrestin1-polycistronic”, “Gq activation” for “beta-arrestin1 recruitment”; type: functional, cell-based
Urotensin-2 receptor [9] = molecular target: T1, Urotensin-2 receptor; test: Agonist activity at human UT receptor expressed in HEK293 cells co-expressing beta-arrestin1-polycistronic BRET biosensor assessed as induction of beta-arrestin1 recruitment measured for 5 mins by luminescence detection based BRET assay; type: functional, cell-based
[10] = molecular target: T2, Urotensin-2 receptor (Homo sapiens); test: as §2, with “Gq-polycistronic” for “G12-polycistronic”, “Gq” for “G12”; type: functional, cell-based
[11] = molecular target: T3, Urotensin-2 receptor (Rattus norvegicus); test: Antagonist activity at UT receptor in Sprague-Dawley rat thoracic aortic ring assessed as reduction in urotensin-2-induced contraction by measuring pEC50 for human urotensin-2-induced contraction at 1 uM pre-incubated for 30 mins before urotensin-2 stimulation (reference value: 8.59 +/- 0.12); type: functional
[12] = molecular target: T2, Urotensin-2 receptor (Homo sapiens); test: Selectivity index, change in deltalog(Tau/KA) for agonist activity at human UT receptor expressed in HEK293 cells co-expressing beta-arrestin1-polycistronic BRET biosensor assessed as induction of beta-arrestin1 recruitment by luminescence detection based BRET assay to deltalog(Tau/KA) for agonist activity at human UT receptor expressed in HEK293 cells co-expressing G12-polycistronic BRET biosensor assessed as induction of G12 activation by luminescence detection based BRET assay to; type: functional, cell-based
[13] = molecular target: T3, Urotensin-2 receptor (Rattus norvegicus); test: as §1, with “in URP-induced” for “in urotensin-2-induced”, “value: 107” for “value: 101”, “+/- 3%)” for “+/- 4%)”; type: functional
[14] = molecular target: T2, Urotensin-2 receptor (Homo sapiens); test: Bias factor, ratio of deltalog(Tau/KA) for agonist activity at human UT receptor expressed in HEK293 cells co-expressing beta-arrestin1-polycistronic BRET biosensor assessed as induction of beta-arrestin1 recruitment by luminescence detection based BRET assay to deltalog(Tau/KA) for agonist activity at human UT receptor expressed in HEK293 cells co-expressing Gq-polycistronic BRET biosensor assessed as induction of Gq activation by luminescence detection based BRET assay; type: functional, cell-based
[15] = molecular target: T2, Urotensin-2 receptor (Homo sapiens); test: Agonist activity at human UT receptor expressed in HEK293 cells co-expressing beta-arrestin1-polycistronic BRET biosensor assessed as induction of beta-arrestin1 recruitment measured for 5 mins by luminescence detection based BRET assay relative to 10 uM URP; type: functional, cell-based
[16] = molecular target: T2, Urotensin-2 receptor (Homo sapiens); test: Bias factor, ratio of deltalog(Tau/KA) for agonist activity at human UT receptor expressed in HEK293 cells co-expressing beta-arrestin1-polycistronic BRET biosensor assessed as induction of beta-arrestin1 recruitment by luminescence detection based BRET assay to deltalog(Tau/KA) for agonist activity at human UT receptor expressed in HEK293 cells co-expressing G12-polycistronic BRET biosensor assessed as induction of G12 activation by luminescence detection based BRET assay; type: functional, cell-based
[17] = molecular target: T2, Urotensin-2 receptor (Homo sapiens); test: Selectivity index, change in deltalog(Tau/KA) for agonist activity at human UT receptor expressed in HEK293 cells co-expressing Gq-polycistronic BRET biosensor assessed as induction of Gq activation by luminescence detection based BRET assay to deltalog(Tau/KA) for agonist activity at human UT receptor expressed in HEK293 cells co-expressing beta-arrestin1-polycistronic BRET biosensor assessed as induction of beta-arrestin1 recruitment by luminescence detection based BRET assay; type: functional, cell-based
Urotensin-2 receptor [18] = molecular target: T1, Urotensin-2 receptor; test: Displacement of [Na125I]-synthetic URP from human UT receptor expressed in HEK293 cell membranes incubated for 2 hrs by gamma-counting
[19] = molecular target: T2, Urotensin-2 receptor (Homo sapiens); test: Selectivity index, change in deltalog(Tau/KA) for agonist activity at human UT receptor expressed in HEK293 cells co-expressing G12-polycistronic BRET biosensor assessed as induction of G12 activation by luminescence detection based BRET assay to deltalog(Tau/KA) for agonist activity at human UT receptor expressed in HEK293 cells co-expressing Gq-polycistronic BRET biosensor assessed as induction of Gq activation by luminescence detection based BRET assay; type: functional, cell-based
[20] = molecular target: T2, Urotensin-2 receptor (Homo sapiens); test: Bias factor, ratio of deltalog(Tau/KA) for agonist activity at human UT receptor expressed in HEK293 cells co-expressing Gq-polycistronic BRET biosensor assessed as induction of Gq activation by luminescence detection based BRET assay to deltalog(Tau/KA) for agonist activity at human UT receptor expressed in HEK293 cells co-expressing G12-polycistronic BRET biosensor assessed as induction of G12 activation by luminescence detection based BRET assay; type: functional, cell-based
Urotensin-2 receptor [21] = molecular target: T4, Urotensin-2 receptor (Rattus norvegicus, UniProt P49684); test: Agonist activity at UT receptor in Sprague-Dawley rat thoracic aortic ring assessed as induction of contraction; type: functional
T4 sequence (P49684 whole entry): T3 sequence (whole entry)

[22] = molecular target: T3, Urotensin-2 receptor (Rattus norvegicus); test: Antagonist activity at UT receptor in Sprague-Dawley rat thoracic aortic ring assessed as reduction in URP-induced contraction by measuring pEC50 for […] at 1 uM pre-incubated for 30 mins […] (reference value: 8.16 +/- 0.08); type: functional
[23] = molecular target: T3, Urotensin-2 receptor (Rattus norvegicus); test: Agonist activity at UT receptor in Sprague-Dawley rat thoracic aortic ring assessed as induction of contraction at 10^-5M relative to KCl-induced contraction; type: functional
[24] = molecular target: T3, Urotensin-2 receptor (Rattus norvegicus); test: Antagonist activity at UT receptor in Sprague-Dawley rat thoracic aortic ring assessed as reduction in urotensin-2-induced contraction by measuring Emax for human urotensin-2-induced contraction at 1 x 10^-8M uM pre-incubated for 30 mins before urotensin-2 stimulation (reference value: 101 +/- 4%); type: functional
[25] = molecular target: T3, Urotensin-2 receptor (Rattus norvegicus); test: as §1, with “in URP-induced” for “in urotensin-2-induced”, “at 3 x 10^-10M” for “at 1 uM”, “value: 107” for “value: 101”, “+/- 3%)” for “+/- 4%)”; type: functional
[26] = molecular target: T3, Urotensin-2 receptor (Rattus norvegicus); test: as §1, with “in URP-induced” for “in urotensin-2-induced”, “1 x 10^-8M” for “1 uM”, “value: 107” for “value: 101”, “+/- 3%)” for “+/- 4%)”; type: functional
[27] = molecular target: T3, Urotensin-2 receptor (Rattus norvegicus); test: as §1, with “in URP-induced” for “in urotensin-2-induced”, “at 3 x 10^-9M” for “at 1 uM”, “value: 107” for “value: 101”, “+/- 3%)” for “+/- 4%)”; type: functional
[28] = molecular target: T3, Urotensin-2 receptor (Rattus norvegicus); test: as §1, with “in URP-induced” for “in urotensin-2-induced”, “1 x 10^-7M” for “1 uM”, “value: 107” for “value: 101”, “+/- 3%)” for “+/- 4%)”; type: functional
[29] = molecular target: T3, Urotensin-2 receptor (Rattus norvegicus); test: Antagonist activity at UT receptor in Sprague-Dawley rat thoracic aortic ring assessed as reduction in urotensin-2-induced contraction by measuring Emax for human urotensin-2-induced contraction at 1 x 10^-7M uM pre-incubated for 30 mins before urotensin-2 stimulation (reference value: 101 +/- 4%); type: functional

Compound | EC50 (Urotensin-2 receptor [1]) [nM] | EC50 (Urotensin-2 receptor [2]) [nM] | Emax [3] [%] | Emax [4] [%] | Emax [5] [%] | fold change (FC) [6] | Emax [7] [%] | fold change (FC) [8] | EC50 (Urotensin-2 receptor [9]) [nM] | fold change (FC) [10] | pEC50 [11] | deltadeltalog(Tau/KA) (beta-arrestin1 selectivity index) [12] | Emax [13] [%] | fold change (FC) [14] | Emax [15] [%] | fold change (FC) [16] | selectivity index, deltadeltalog(Tau/KA) [17] | IC50 (Urotensin-2 receptor [18]) [nM] | deltalog(Tau/KA) [19] | fold change (FC) [20] | other results
CC(C)[C@H](NC(=O)[C@@H]1CSSC[C@H](NC(=O)[C@H](C)N)C(=O)N[C@@H](Cc2ccc(C#Cc3ccccc3)cc2)C(=O)N[C@@H](Cc2c[nH]c3ccccc23)C(=O)N[C@@H](CCCCN)C(=O)N[C@@H](Cc2ccc(O)cc2)C(=O)N1)C(=O)O | 27.5 | 148 | 78 | 15 | 102 | 1.6 | 28 | 1.8 | 759 | 0.9 | Active | -0.22 | 25 | 1.1 | 94 | 0.6 | -0.03 | 26.9 | 0.24 | 0.6 | EC50 (Urotensin-2 receptor [21]): 32.4 nM; pEC50 [22]: Active
CC(C)[C@H](NC(=O)[C@@H]1CSSC[C@H](NC(=O)[C@H](N)CC(=O)O)C(=O)N[C@@H](Cc2ccc(I)cc2)C(=O)N[C@@H](Cc2c[nH]c3ccccc23)C(=O)N[C@@H](CCCCN)C(=O)N[C@@H](Cc2ccc(O)cc2)C(=O)N1)C(=O)O | – | – | 91 | 95 | 91 | 0.8 | – | 4.3 | – | 0.2 | – | 0.09 | 107 | 5.3 | 97 | 1.2 | -0.73 | – | 0.64 | 0.2 | Emax [23]: 49%
CC(C)[C@H](NC(=O)[C@@H]1CSSC[C@H](NC(=O)[C@H](C)N)C(=O)N[C@@H](Cc2ccc(-c3ccccc3)cc2)C(=O)N[C@@H](Cc2c[nH]c3ccccc23)C(=O)N[C@@H](CCCCN)C(=O)N[C@@H](Cc2ccc(O)cc2)C(=O)N1)C(=O)O | 15.1 | 120 | 80 | 23 | 91 | 3.9 | 25 | 1.4 | 603 | 2.8 | Active | -0.6 | 31 | 0.4 | 76 | 0.3 | 0.45 | 5.37 | 0.15 | 0.7 | Emax [24]: 78%; Emax [25]: 104%; Emax [26]: 75%; Emax [27]: 94%; EC50 (Urotensin-2 receptor [21]): 28.8 nM; Emax [28]: 60%; Emax [29]: 58%; pEC50 [22]: Active
